Measurements reported in patent US20060276393A1, “Novel compositions for preventing and treating neurodegenerative and blood coagulation disorders” (Sirtris Pharmaceuticals, Inc., priority 2005, published 2006).
“Also recorded” adds a separate entry of the source.

Tests used:
[1] = Solution stability from SIRT1 fold-stimulation of aged stock solutions; format: physicochemical; conditions: ethanol stock 2.5 mM, room temperature, nitrogen atmosphere
Text: The fold-stimulation (ratio to control) obtained with a compound diluted from an aged stock solution was compared to an identical dilution from a stock solution freshly prepared from the solid compound. “t1/2” is defined as the time required for the SIRT1 fold-stimulation of the compound from the aged solution to decay to one-half of that obtained from a freshly prepared solution. […] Stocks were aged by storage at room temperature, in glass vials, under a nitrogen atmosphere.

recombinant human SIRT1 = molecular target: T1, recombinant human SIRT1 (Homo sapiens, UniProt Q96EB6); assay: SIRT1 fluorescent deacetylation assay (p53-382 acetylated peptide); format: biochemical; conditions: 25 μM NAD+, 25 μM p53-382 acetylated peptide, compounds at 100 μM
T1 sequence (Q96EB6 1-747): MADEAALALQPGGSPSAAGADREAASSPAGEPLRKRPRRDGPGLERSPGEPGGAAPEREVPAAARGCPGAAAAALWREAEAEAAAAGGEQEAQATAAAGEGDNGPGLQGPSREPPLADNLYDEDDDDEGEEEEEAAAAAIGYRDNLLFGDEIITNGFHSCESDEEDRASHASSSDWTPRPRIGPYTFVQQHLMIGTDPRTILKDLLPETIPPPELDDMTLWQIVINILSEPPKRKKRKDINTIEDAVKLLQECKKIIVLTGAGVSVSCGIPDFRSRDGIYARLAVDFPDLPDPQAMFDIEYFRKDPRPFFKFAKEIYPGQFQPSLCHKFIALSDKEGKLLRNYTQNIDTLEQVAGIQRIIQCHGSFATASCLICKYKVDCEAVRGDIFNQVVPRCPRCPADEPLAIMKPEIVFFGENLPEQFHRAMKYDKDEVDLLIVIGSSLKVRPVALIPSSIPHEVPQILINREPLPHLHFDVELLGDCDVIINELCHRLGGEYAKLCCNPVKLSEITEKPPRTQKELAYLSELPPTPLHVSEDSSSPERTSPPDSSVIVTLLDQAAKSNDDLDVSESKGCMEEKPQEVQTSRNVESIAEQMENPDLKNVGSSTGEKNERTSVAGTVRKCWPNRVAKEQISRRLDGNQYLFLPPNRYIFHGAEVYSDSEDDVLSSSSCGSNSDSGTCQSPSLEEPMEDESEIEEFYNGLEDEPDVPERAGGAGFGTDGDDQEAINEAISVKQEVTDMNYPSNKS
Text: Lines represent non-linear least-squares fits to the Michaelis-Menten equation. […] Lines represent non-linear least-squares fits to the Michaelis-Menten equation. […] Error bars are standard errors of the mean.
To identify compounds that modulate SIRT1 activity, a number of small molecule libraries were screened using a fluorescent deacetylation assay in 96-well plates^26. The substrate used in the assay was a fluorogenic peptide based on the sequence encompassing the p53-K382 acetylation site, a known target of SIRT1 in vivo^20,21,27. […] The small molecule libraries included analogues of nicotinamide, ε-acetyl lysine, NAD^+, nucleotides, nucleotide analogues and purinergic ligands.
His6-tagged recombinant SIRT1 and GST-tagged recombinant Sir2 were prepared as previously described^26. From 0.1 to 1 μg of SIRT1 and 1.5 μg of Sir2 were used per deacetylation assay (in 50 μl total reaction) as previously described^26.
Themed compound libraries (BIOMOL) were used for primary and secondary screening. Most polyphenol compounds were dissolved at 10 mM in dimethylsulfoxide (DMSO) on the day of the assay. For water soluble compounds and negative controls, 1% v/v DMSO was added to the assay. […] Unless otherwise indicated all initial rate measurements were means of three or more replicates, obtained with single incubation times, at which point 5% or less of the substrate initially present had been deacetylated. Calculation of net fluorescence increases included subtraction of a blank value, which in the case of Sir2 was obtained by omitting the enzyme from the reaction and in the case of SIRT1 by adding an inhibitor (200 μM suramin or 1 mM nicotinamide) to the reaction prior to the acetylated substrate. […] All error bars represent the standard error of the mean.

S. cerevisiae = assay: Yeast replicative lifespan; format: cell-based; conditions: 10 μM; 2% (w/v) glucose YPD; untreated 100%
Procedure: Average lifespan for wild type, 22.9 generations, quercetin, 23.4; piceatannol. […]
All yeast strains were grown at 30° C. in complete yeast extract/bactopeptone, 2.0% (w/v) glucose (YPD) medium except where stated otherwise. Calorie restriction was induced in 0.5% glucose. Synthetic complete (SC) medium consisted of 1.67% yeast nitrogen base, 2% glucose, 40 mg/litre each of auxotrophic markers. SIR2 was integrated in extra copy and disrupted as described^5. Other strains are described elsewhere^26. For cellular deacetylation assays, HeLa S3 cells were used. U20S osteosarcoma and human embryonic kidney (HEK 293) cells were cultured adherently in Dulbecco's Modified Eagle's Medium (DMEM) containing 10% fetal calf serum (FCS) with 1.0% glutamine and 1.0% penecillin/streptomycin. HEK 293 overexpressing dominant negative SIRT1 H363Y was a gift of R. Frye (U. Pittsburgh).
Lifespan measurements were performed using PSY316AT MATα as previously described^35. All compounds for lifespan analyses were dissolved in 95% ethanol and plates were dried and used within 24 hours. Prior to lifespan analysis, cells were pre-incubated on their respective media for at least 15 hours. Following transfer to a new plate, cells were equilibrated on the medium for a minimum of 4 hours prior to micro-manipulating them. At least 30 cells were examined per experiment and each experiment was performed at least twice. Statistical significance of lifespan differences was determined using the Wilcoxon rank sum test. Differences are stated to be significant when the confidence is higher than 95%.

C. elegans = C. elegans lifespan; format: in vivo; conditions: N2 worms, E. coli as food; untreated 100%
Procedure: Thus, the presence of resveratrol in the growth media of C. elegans extends their lifespan.
Bristol N2 (Caenorhabditis Genetics Center) was used as the wild-type strain. The sir-2.1 mutant strain was generated by backcrossing VC199 (sir-2.1(ok434)) to N2 four times. Cultures were grown on standard NGM media and maintained on E. coli strain OP50. For the lifespan assays, synchronized animals were transferred to treatment plates as young adults (2 d after hatching, day 0 of assay), and were transferred to fresh treatment plates every 2 days for the first 6 to 8 days of the assay. […] For some lifespan trials, heat-killed OP50 were used as a food source. OP50 cultures were heated to 65° C. for 30 minutes, then pelleted and resuspended in 1/10 volume in S Basal supplemented with 10 mM MgSO4. In all assays, worms were monitored daily for mortality by gently probing with a platinum pick. Assays were performed at 24° C. To assay worm feeding rates, worms at the indicated stages were placed on treatment plates (no FUdR) for 4-5 hours, then videoed for 1 minute using a Pixelink PL-662 camera. The frame rate was slowed and the pumping rate of the pharynx was counted. To assay fecundity, gravid hermaphrodites (5 per plate, raised from synchronized L1s on normal or treatment plates) were allowed to lay eggs on their respective media for 5 hours, and the total number of eggs was counted.

Compound: CC(=O)Oc1cc(O)cc(/C=C/c2ccc(O)cc2)c1 [BML-221, 3,4′-Dihydroxy-5-acetoxy-trans-stilbene]
- solution stability relative to resveratrol [1]: strongly increased; also recorded: vast improvement in solution stability relative to resveratrol
- SIRT1 stimulating activity (in words) (recombinant human SIRT1): diminished in in vitro SIRT1 activating ability
- % change in yeast replicative lifespan relative to untreated organisms (10 μM) (S. cerevisiae): 165%
- % change in C. elegans lifespan relative to untreated organisms (100/500 μM) (C. elegans): >100%
